Results published in patent US20190350200A1, “SYNERGISTIC ANTIMICROBIAL COMPOSITIONS” (JUBILANT LIFE SCIENCES LIMITED, priority 2016, published 2019).

System: Malassezia furfur
Assay: Zone of inhibition, disc diffusion method
Assay type: cell-based
Conditions: antimicrobial active alone, 37° C., 48 hrs; for zone of inhibition at […] strength / zone of inhibition at 0.5 % strength / zone of inhibition at 1 % strength / zone of inhibition at 2 % strength: Malassezia furfur; for zone of inhibition at […] strength: 0.25 % w/w
Method: The antimicrobial efficacy was determined by measuring zone of inhibition using disc diffusion method against E. Coli, Malassezia furfur, Pseudomonas, Aspergillus niger, Staphylococcus and Candida. […] The culture plates were incubated at 37° C. for 48 hrs and anti-microbial activity was evaluated by observing an area of no growth around the disc. An area of no growth around the swatch is known as a zone of inhibition.

SMILES: Cc1cc(C2CCCCC2)n(O)c(=O)c1 [Ciclopirox Olamine]
- zone of inhibition at […] strength: 18 mm
- zone of inhibition at 0.5 % strength (0.5 % w/w): 18 mm
- zone of inhibition at 1 % strength (1 % w/w): 20 mm
- zone of inhibition at 2 % strength (2 % w/w): 22 mm

SMILES: CC(C)(C)C(=O)C(Oc1ccc(Cl)cc1)n1ccnc1 (stereo not drawn) [Climbazole]
- zone of inhibition at […] strength: 20 mm
- zone of inhibition at 0.5 % strength (0.5 % w/w): 40 mm
- zone of inhibition at 1 % strength (1 % w/w): 40 mm
- zone of inhibition at 2 % strength (2 % w/w): 42 mm

SMILES: CC(=O)N1CCN(c2ccc(OCC3COC(Cn4ccnc4)(c4ccc(Cl)cc4Cl)O3)cc2)CC1 (stereo not drawn) [Ketoconazole]
- zone of inhibition at […] strength: 40 mm
- zone of inhibition at 0.5 % strength (0.5 % w/w): 40 mm
- zone of inhibition at 1 % strength (1 % w/w): 40 mm
- zone of inhibition at 2 % strength (2 % w/w): 40 mm

SMILES: Cc1cc(CC(C)CC(C)(C)C)n(O)c(=O)c1.NCCO (stereo not drawn) [Octopirox]
- Zone of inhibition (0.5 % w/w): 14 mm
- Zone of inhibition (1 % w/w): 18 mm
- Zone of inhibition (2 % w/w): 20 mm
- Zone of inhibition ([…] w/w): 10 mm

SMILES: O=C(O)c1ccccc1O [Salicylic Acid]
- zone of inhibition at 1 % strength (1 % w/w): 4 mm
- zone of inhibition at 2 % strength (2 % w/w): 6 mm
